Assay results published in patent US11135319B2, “Compounds useful as imaging agents of hypoxia” (CENTRE NATIONAL DE LA RECHERCHE SCIENTIFIQUE, priority 2017, dated 2021).

Key:
[1] = Determination of the partition coefficient (n-octanol/H2O, radioactivity counting); type: physicochemical; conditions: ambient temperature, average of three measurements, read-out: Log P value
Method: Determination of the partition coefficient:
n-Octanol (1 mL) and H2O (1 mL) were mixed for 20 min at ambient temperature before adding 10 μL of radioactively labeled compound. The tube was vigorously agitated by a vortex mixer for 30 min at ambient temperature. Three aliquots of 100 μL were collected from each phase and counted in a Packard Cobra Gamma counter. Log P was calculated as follows: log P=log (concentration of radioactivity in the n-octanol phase/concentration of radioactivity in the aqueous phase). The values provided are an average of the three measurements carried out.

[2] = tested on: rhabdomyosarcoma tumor (hypoxia); assay: In vivo PET (TEP) imaging of hypoxia in the animal rhabdomyosarcoma model; conditions: for SUVMax (average) / SUVMean (average): tumor to muscle
Method: The evaluations of the radio-tracers were carried out in the animal rhabdomyosarcoma model provided by Biomedical Magnetic Resonance Research Group (REMA)—Catholic University of Louvain (UCL)—Belgium according to Peeters et al. (Int J Radiat Oncol, 2015) in the comparative study of [^18F]HX-4, [^18F]FMISO and [^18F]FAZA. The in vivo imaging was carried out using an Inveon μTEP/μTDM camera (Siemens). The animals were handled under gaseous anesthesia using isoflurane (induction at 5%, maintenance between 1.5% and 2.5% in 70% N2O/30% O2). The body temperature of the animals was maintained above 37.5° C. while the rate of respiration was constantly monitored, in order to obtain stable anesthesia reproducible from one animal to another. A catheter was placed without surgery (Insight Autoguard 24 Ga) at the caudal vein in order to allow the administration of radio-tracers. TDM acquisition is systematically performed prior to TEP imaging and is used for corrections of attenuation and diffusion of photos as well as for obtaining anatomical data. Acquisitions and reconstructions were performed with a coincidence time of 3.4 ns, an energy window of 350 to 650 keV, the OSEM3D-MAP reconstruction algorithm (respectively 2 and 18 iterations) with the “fastMAP” option, uniform variance and a required resolution of 2.26 mm. 128×128×159 pixels per image, with a voxel size of 0.776×0.776×0.796 mm^3. The images were normalized in SUV (Standardized Uptake Value) and analyzed with the PMOD (3.6 PMODTechnologies) software, by manual delimitation of the volumes of interest (VOIs) “entire tumor” and “muscle” and simultaneously using the 2 imaging modes.
The animals were imaged for 180 consecutive minutes starting with the injection of the radiotracer [^18F]AEL-3156 (23±3 MBq) or [^18F]FMISO (18±3 MBq) coinciding with the beginning of TEP acquisition. The 180 min post-injection time is known to be optimal for this animal model, for obtaining imaging of hypoxia with TEP tracers such as [^18F]FMISO and [^18F]HX4. After TEP imaging and before waking, the animals systematically received an intraperitoneal injection of saline solution (2 mL) in order to rehydrate them.

Row | logP at 30 min [1] | SMILES | SUVMax (average) ([2]; 20-30 min of acquisition) | SUVMean (average) ([2]; 20-30 min of acquisition) | SUVMax (average) ([2]; 40-60 min of acquisition) | SUVMean (average) ([2]; 40-60 min of acquisition) | SUVMax (average) ([2]; 160-180 min of acquisition) | SUVMean (average) ([2]; 160-180 min of acquisition) | tumor to muscle ratio in SUVmax ([2]; at 20-30 min of acquisition) | tumor to muscle ratio in SUVmean ([2]; at 20-30 min of acquisition) | time for which the optimal tumor to muscle ratio remains constant ([2]; post-injection) | tumor to muscle ratio, times lower than [^18F]AEL-3156 ([2]; at 20-30 min of acquisition) [times] | time after which the optimal tumor to muscle ratio is achieved ([2]; of acquisition) [min]
1 | -2.9 | O=[N+]([O-])c1nccn1Cn1cc(CC(CCC[18F])S(=O)(=O)O)nn1 (centres unmarked) [[^18F]AEL-3156] | 5.20 | 2.94 | 5.10 | 2.93 | 2.90 | 1.51 | 5 | 3 | at least 60 min | – | –
2 | – | O=[N+]([O-])c1nccn1CC(O)C[18F] (centres unmarked) [[^18F]FMISO] | 2.04 | 1.00 | 3.64 | 1.45 | 5.42 | 3.42 | 1.7 | 1 | – | 3 | 180
